Results: US20080161248A1, “Methods and Compositions for Therapeutic Treatment” (priority 2006, published 2008)
Where two headings read alike, the source gives them in different places.

How the values were obtained:
[1] = system: mouse spleen cells, response to LPS; test: In vitro LPS assay on spleen cells; type: cell-based; details: high ([…]10^6 cells/well) and low (8×10^5 cells/well) cell concentration
Description: Animals: 8-9 weeks-old Lewis and Brown Norway male rats were obtained from Charles River Laboratories. General procedures for animal care and housing was in accordance with the National Research Council (NRC) Guide for the Care and Use of Laboratory Animals (1996) and the Animal Welfare Standards incorporated in 9 CFR Part 3, 1991.
Spleens were collected for use in in vitro Con A and LPS assays.
FIGS. 10 and 11 show the effect of quercetin and tacrolimus on response of mouse spleen cells to LPS at a high (1.6×10^6 cells/well) and low (8×10^5 cells/well) cell concentration, respectively.

[2] = body surface area corrections, cited from earlier work
[3] = cited from earlier work
[4] = US heart transplantation study; cited from earlier work
[5] = liver transplantation, U.S. study, 12-month post-transplant; cited from earlier work

## C=CC[C@@H]1/C=C(\C)C[C@H](C)C[C@H](OC)C2O[C@@](O)(C(=O)C(=O)N3CCCC[C@H]3C(=O)O[C@H](/C(C)=C/[C@@H]3CC[C@@H](O)[C@H](OC)C3)[C@H](C)[C@@H](O)CC1=O)[C@H](C)C[C@@H]2OC (relative stereo) [Prograf, [3S-[3R[E(1S*,3S*,4S*)], 4S*,5R*,8S*,9E,12R*,14R*,15S*,16R*,18S*,19S*,26aR*]]-,6,8,11,12,13,14,15,16,17,18,19,24,25,26,26a-hexadecahydro-5,19-dihydroxy-3-[2-(4-hydroxy-3-methoxycyclohexyl)-1-methylethenyl]-14,16-dimethoxy-4,10,12,18-tetramethyl-8-(2-propenyl)-15,19-epoxy-3H-pyrido[2,1-c][1,4]oxaazacyclotricosine-1,7,20,21 (4H,23H)-tetrone, monohydrate]
[1]
  effect on response of spleen cells to LPS (proliferation): inhibited LPS-induced proliferation in a dose dependent manner
[2]; adult rats, IV
  dose at or above which mortalities were seen: ≥ 16 × the recommended human IV dose
[2]; adult rats, oral
  dose at or above which mortalities were seen: ≥ 52 × the recommended human oral dose
[2]; immature rats, oral
  dose at or above which mortalities were seen: ≥ 16 × the recommended oral dose
[3]; European heart study, target range 5-15 ng/mL
  patients with trough concentrations within the pre-defined target range: 74-86%
[3]; heart transplant patients, European trial
  Adverse event: Tremor: 15%
[4]
  Other targeted treatment-emergent adverse events (Cushingoid features, impaired wound healing, hyperkalemia, Candida infection, CMV infection/syndrome), rate: less than 15%
[5]
  Adverse event: Abdominal Pain: 59%
  Adverse event: Anemia: 47%
  Adverse event: Anorexia: 34%
  Adverse event: Ascites: 27%
  Adverse event: Asthenia: 52%
  Adverse event: Atelectasis: 28%
  Adverse event: BUN Increased: 30%
  Adverse event: Back Pain: 30%
  Adverse event: Constipation: 24%
  Adverse event: Creatinine Increased: 39%
  Adverse event: Diarrhea: 72%
  Adverse event: Dyspnea: 29%
  Adverse event: Fever: 48%
  Adverse event: Headache: 64%
  Adverse event: Hyperglycemia: 47%
  Adverse event: Hyperkalemia: 45%
  Adverse event: Hypertension: 47%
  Adverse event: Hypokalemia: 29%
  Adverse event: Hypomagnesemia: 48%
  Adverse event: Insomnia: 64%
  Adverse event: Kidney Function Abnormal: 40%
  Adverse event: LFT Abnormal: 36%
  Adverse event: Leukocytosis: 32%
  Adverse event: Nausea: 46%
  Adverse event: Oliguria: 18%
  Adverse event: Pain: 63%
  Adverse event: Paresthesia: 40%
  Adverse event: Peripheral Edema: 26%
  Adverse event: Pleural Effusion: 30%
  Adverse event: Pruritus: 36%
  Adverse event: Rash: 24%
  Adverse event: Thrombocytopenia: 24%
  Adverse event: Tremor: 56%
  Adverse event: Urinary Tract Infection: 16%
  Adverse event: Vomiting: 27%
